Assay results as given in ChEMBL document CHEMBL4321812, “Structure-based rational design of staurosporine-based fluorescent probe with broad-ranging kinase affinity for kinase panel application” (Bioorg Med Chem Lett, 2019).

Legend:
[1] = biological target: MAP/microtubule affinity-regulating kinase 3 (Homo sapiens, UniProt P27448); experiment: Binding affinity to recombinant full-length N-terminal His-FLAG-GST-tagged MARK3 (unknown origin) expressed in baculovirus infected Sf9 insect cells incubated for 1 hr by TR-FRET assay
[2] = biological target: Ribosomal protein S6 kinase alpha-6 (Homo sapiens, UniProt Q9UK32); experiment: Binding affinity to recombinant full-length N-terminal His-FLAG-tagged RPS6KA6 (unknown origin) expressed in baculovirus infected Sf9 insect cells incubated for 1 hr by TR-FRET assay
Chain of Ribosomal protein S6 kinase alpha-6 (Q9UK32 whole entry): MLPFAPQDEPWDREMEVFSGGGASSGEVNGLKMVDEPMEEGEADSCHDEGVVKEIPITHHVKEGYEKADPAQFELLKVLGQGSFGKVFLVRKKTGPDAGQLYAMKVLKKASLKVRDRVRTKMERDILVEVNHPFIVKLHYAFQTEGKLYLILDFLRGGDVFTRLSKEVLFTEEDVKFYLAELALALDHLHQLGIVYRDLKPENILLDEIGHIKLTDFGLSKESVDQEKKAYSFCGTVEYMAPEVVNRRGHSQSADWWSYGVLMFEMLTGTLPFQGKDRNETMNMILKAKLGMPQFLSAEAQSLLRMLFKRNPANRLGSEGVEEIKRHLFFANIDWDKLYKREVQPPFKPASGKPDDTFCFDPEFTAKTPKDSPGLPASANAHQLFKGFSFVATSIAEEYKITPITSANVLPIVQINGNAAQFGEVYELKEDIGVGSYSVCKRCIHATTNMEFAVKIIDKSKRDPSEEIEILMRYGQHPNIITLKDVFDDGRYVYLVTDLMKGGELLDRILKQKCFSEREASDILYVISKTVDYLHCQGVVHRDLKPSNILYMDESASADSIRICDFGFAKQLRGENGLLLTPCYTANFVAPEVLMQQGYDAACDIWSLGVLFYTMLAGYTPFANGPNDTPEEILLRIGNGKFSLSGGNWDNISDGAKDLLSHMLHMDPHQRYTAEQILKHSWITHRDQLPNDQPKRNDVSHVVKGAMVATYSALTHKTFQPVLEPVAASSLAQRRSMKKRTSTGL

[3] = biological target: Glycogen synthase kinase-3 beta (Homo sapiens, UniProt P49841); experiment: Binding affinity to recombinant full-length N-terminal His-FLAG-GST-tagged GSK3B (unknown origin) expressed in baculovirus infected Sf9 insect cells incubated for 1 hr by TR-FRET assay
[4] = biological target: Serine/threonine-protein kinase 4 (Homo sapiens, UniProt Q13043); experiment: Binding affinity to recombinant full-length N-terminal His-FLAG-GST-tagged STK4 (unknown origin) expressed in baculovirus infected Sf9 insect cells incubated for 1 hr by TR-FRET assay
[5] = biological target: Serine/threonine-protein kinase D2 (Homo sapiens, UniProt Q9BZL6); experiment: Binding affinity to recombinant full-length N-terminal His-FLAG-tagged PRKD2 (unknown origin) expressed in baculovirus infected Sf9 insect cells incubated for 1 hr by TR-FRET assay
Chain of Serine/threonine-protein kinase D2 (Q9BZL6 whole entry, the tested form may be a part): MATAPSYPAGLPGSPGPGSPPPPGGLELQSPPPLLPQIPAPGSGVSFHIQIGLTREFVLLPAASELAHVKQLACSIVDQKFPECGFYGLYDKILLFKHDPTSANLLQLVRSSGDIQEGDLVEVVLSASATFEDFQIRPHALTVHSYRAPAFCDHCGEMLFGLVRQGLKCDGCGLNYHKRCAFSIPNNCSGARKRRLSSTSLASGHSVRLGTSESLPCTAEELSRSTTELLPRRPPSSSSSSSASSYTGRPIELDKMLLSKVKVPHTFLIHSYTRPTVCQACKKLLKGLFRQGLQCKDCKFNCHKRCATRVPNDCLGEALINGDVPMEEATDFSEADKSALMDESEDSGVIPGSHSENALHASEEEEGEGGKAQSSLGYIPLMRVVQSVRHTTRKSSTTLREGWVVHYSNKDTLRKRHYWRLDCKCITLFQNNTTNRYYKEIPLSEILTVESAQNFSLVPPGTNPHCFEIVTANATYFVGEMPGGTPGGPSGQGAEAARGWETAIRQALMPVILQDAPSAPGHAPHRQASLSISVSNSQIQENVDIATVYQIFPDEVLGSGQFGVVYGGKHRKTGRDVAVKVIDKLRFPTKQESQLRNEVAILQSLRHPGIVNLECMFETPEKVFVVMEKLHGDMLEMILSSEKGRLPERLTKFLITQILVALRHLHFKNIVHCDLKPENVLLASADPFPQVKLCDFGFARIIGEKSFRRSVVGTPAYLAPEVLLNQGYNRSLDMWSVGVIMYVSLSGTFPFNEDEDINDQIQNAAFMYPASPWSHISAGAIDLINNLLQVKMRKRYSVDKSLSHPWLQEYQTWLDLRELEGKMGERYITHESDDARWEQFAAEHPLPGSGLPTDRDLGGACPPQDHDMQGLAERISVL

[6] = biological target: Serine/threonine-protein kinase TNNI3K (Homo sapiens, UniProt Q59H18); experiment: Binding affinity to recombinant N-terminal His-FLAG-GST-tagged TNNI3K (unknown origin) (1 to 727 residues) expressed in baculovirus infected Sf9 insect cells incubated for 1 hr by TR-FRET assay
[7] = biological target: Fibroblast growth factor receptor 2 (Homo sapiens, UniProt P21802); experiment: Binding affinity to recombinant N-terminal His-FLAG-GST-tagged FGFR2 (unknown origin) (399 to 821 residues) expressed in baculovirus infected Sf9 insect cells incubated for 1 hr by TR-FRET assay
[8] = biological target: Serine/threonine-protein kinase N1 (Homo sapiens, UniProt Q16512); experiment: Binding affinity to recombinant full-length N-terminal His-FLAG-GST-tagged PKN1 (unknown origin) expressed in baculovirus infected Sf9 insect cells incubated for 1 hr by TR-FRET assay
[9] = biological target: BMP-2-inducible protein kinase (Homo sapiens, UniProt Q9NSY1); experiment: Binding affinity to recombinant full-length N-terminal His-FLAG-GST-tagged BMP2K (unknown origin) expressed in baculovirus infected Sf9 insect cells incubated for 1 hr by TR-FRET assay
Chain of BMP-2-inducible protein kinase (Q9NSY1 whole entry): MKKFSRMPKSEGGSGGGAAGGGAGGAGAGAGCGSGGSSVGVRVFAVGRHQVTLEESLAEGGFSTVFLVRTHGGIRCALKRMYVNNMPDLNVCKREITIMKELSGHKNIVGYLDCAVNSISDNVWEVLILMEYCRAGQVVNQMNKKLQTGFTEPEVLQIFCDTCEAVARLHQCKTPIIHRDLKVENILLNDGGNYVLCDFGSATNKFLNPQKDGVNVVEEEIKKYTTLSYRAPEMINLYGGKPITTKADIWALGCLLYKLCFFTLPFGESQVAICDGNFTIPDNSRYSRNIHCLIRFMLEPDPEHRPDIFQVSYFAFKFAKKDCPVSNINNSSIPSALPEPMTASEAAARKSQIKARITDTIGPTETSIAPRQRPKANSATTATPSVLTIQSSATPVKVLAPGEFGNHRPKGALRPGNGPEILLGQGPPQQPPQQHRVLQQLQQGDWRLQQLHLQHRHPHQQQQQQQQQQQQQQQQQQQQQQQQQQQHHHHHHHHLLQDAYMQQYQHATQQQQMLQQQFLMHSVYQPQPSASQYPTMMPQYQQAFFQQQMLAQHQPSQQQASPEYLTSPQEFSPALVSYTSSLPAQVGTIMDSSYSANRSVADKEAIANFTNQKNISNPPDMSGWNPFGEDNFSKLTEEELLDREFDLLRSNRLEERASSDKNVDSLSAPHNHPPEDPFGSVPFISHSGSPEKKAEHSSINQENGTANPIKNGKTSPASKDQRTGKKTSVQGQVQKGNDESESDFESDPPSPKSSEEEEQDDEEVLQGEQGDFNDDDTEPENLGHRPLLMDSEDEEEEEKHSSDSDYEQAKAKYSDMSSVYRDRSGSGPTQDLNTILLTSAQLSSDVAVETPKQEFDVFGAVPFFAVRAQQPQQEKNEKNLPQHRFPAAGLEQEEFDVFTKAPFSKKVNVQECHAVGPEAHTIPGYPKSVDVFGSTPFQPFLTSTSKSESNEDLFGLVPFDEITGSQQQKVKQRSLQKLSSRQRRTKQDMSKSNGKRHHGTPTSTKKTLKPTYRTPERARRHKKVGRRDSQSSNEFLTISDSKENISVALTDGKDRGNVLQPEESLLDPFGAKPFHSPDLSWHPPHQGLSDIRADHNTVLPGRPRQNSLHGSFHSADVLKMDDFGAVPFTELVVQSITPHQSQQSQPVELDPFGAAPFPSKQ

CDK8/Cyclin C = CDK8/Cyclin C (Homo sapiens, UniProt P49336); experiment: Binding affinity to recombinant human full length N-terminal GST-tagged CDK8 co-expressed with N-terminal GST-tagged CyclinC expressed in baculovirus expression system using RNA polymerase peptide as substrate incubated for 1 hr by TR-FRET assay
Chain of CDK8/Cyclin C (P49336 whole entry, the tested form may be a part): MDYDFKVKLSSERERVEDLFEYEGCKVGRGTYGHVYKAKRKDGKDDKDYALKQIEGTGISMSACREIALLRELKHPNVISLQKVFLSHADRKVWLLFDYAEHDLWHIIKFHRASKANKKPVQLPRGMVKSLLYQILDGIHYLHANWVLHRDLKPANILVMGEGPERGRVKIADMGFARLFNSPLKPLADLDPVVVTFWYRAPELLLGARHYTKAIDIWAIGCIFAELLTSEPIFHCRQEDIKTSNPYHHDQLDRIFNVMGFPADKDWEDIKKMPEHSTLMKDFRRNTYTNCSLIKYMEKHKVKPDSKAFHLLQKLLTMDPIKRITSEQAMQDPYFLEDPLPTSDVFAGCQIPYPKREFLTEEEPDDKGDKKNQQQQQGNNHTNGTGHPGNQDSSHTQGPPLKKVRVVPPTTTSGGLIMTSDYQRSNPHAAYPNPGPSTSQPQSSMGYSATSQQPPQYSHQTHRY
Chain of CDK8/Cyclin C (P24863 whole entry, further chain, the tested form may be a part): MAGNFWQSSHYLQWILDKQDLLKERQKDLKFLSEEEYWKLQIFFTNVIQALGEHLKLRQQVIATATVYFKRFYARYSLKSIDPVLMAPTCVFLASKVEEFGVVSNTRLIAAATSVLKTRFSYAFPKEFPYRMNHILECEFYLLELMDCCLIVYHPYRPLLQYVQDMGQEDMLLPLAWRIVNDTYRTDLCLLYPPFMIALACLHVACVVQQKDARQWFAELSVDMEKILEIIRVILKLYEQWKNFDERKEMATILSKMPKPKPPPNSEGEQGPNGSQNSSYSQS

[10] = biological target: Leukocyte tyrosine kinase receptor (Homo sapiens, UniProt P29376); experiment: Binding affinity to recombinant full-length N-terminal His-FLAG-GST-tagged LTK (unknown origin) (498 to 796 residues) expressed in baculovirus infected Sf9 insect cells incubated for 1 hr by TR-FRET assay
[11] = biological target: Mitogen-activated protein kinase kinase kinase 7 (Homo sapiens, UniProt O43318); experiment: Binding affinity to recombinant full-length N-terminal His-FLAG-tagged MAP3K7 (unknown origin) expressed in baculovirus infected Sf9 insect cells incubated for 1 hr by TR-FRET assay
[12] = biological target: Mitogen-activated protein kinase 10 (Homo sapiens, UniProt P53779); experiment: Binding affinity to recombinant full-length N-terminal His-FLAG-GST-tagged MAPK10 (unknown origin) expressed in baculovirus infected Sf9 insect cells incubated for 1 hr by TR-FRET assay
Chain of Mitogen-activated protein kinase 10 (P53779 whole entry): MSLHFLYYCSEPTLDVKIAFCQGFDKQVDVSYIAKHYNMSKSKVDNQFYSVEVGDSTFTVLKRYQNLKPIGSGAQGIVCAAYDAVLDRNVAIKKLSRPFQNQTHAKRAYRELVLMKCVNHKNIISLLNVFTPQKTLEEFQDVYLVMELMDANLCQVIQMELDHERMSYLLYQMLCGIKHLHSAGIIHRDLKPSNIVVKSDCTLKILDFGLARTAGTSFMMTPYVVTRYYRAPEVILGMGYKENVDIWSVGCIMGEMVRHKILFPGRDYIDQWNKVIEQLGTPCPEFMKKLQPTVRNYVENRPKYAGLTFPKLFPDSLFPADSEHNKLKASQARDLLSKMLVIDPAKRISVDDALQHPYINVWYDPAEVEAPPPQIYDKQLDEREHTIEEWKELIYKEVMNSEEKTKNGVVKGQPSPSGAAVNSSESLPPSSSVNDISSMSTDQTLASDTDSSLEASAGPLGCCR

[13] = biological target: Testis-specific serine/threonine-protein kinase 1 (Homo sapiens, UniProt Q9BXA7); experiment: Binding affinity to recombinant full-length N-terminal His-FLAG-GST-tagged TSSK1B (unknown origin) expressed in baculovirus infected Sf9 insect cells incubated for 1 hr by TR-FRET assay
[14] = Binding affinity to recombinant human full-length N-terminal […] MKNK1 T334D mutant expressed in baculovirus expression system using RS peptide as substrate incubated for 1 hr by TR-FRET assay
[15] = biological target: Serine/threonine-protein kinase 32C (Homo sapiens, UniProt Q86UX6); experiment: Binding affinity to recombinant full-length N-terminal His-FLAG-GST-tagged STK32C (unknown origin) (66 to 486 residues) expressed in baculovirus infected Sf9 insect cells incubated for 1 hr by TR-FRET assay
[16] = biological target: Serine/threonine-protein kinase Sgk2 (Homo sapiens, UniProt Q9HBY8); experiment: Binding affinity to recombinant full-length N-terminal His-FLAG-tagged SGK2 (unknown origin) expressed in baculovirus infected Sf9 insect cells incubated for 1 hr by TR-FRET assay
[17] = biological target: Calcium/calmodulin-dependent protein kinase type II subunit delta (Homo sapiens, UniProt Q13557); experiment: Binding affinity to recombinant human full-length N-terminal GST-tagged CAMK2D expressed in baculovirus expression system using GS peptide as substrate incubated for 1 hr by TR-FRET assay
[18] = biological target: Mitogen-activated protein kinase kinase kinase 14 (Homo sapiens, UniProt Q99558); experiment: Binding affinity to recombinant N-terminal His-FLAG-GST-tagged MAP3K14 (unknown origin) (319 to 947 residues) expressed in baculovirus infected Sf9 insect cells incubated for 1 hr by TR-FRET assay
Chain of Mitogen-activated protein kinase kinase kinase 14 (Q99558 whole entry, the tested form may be a part): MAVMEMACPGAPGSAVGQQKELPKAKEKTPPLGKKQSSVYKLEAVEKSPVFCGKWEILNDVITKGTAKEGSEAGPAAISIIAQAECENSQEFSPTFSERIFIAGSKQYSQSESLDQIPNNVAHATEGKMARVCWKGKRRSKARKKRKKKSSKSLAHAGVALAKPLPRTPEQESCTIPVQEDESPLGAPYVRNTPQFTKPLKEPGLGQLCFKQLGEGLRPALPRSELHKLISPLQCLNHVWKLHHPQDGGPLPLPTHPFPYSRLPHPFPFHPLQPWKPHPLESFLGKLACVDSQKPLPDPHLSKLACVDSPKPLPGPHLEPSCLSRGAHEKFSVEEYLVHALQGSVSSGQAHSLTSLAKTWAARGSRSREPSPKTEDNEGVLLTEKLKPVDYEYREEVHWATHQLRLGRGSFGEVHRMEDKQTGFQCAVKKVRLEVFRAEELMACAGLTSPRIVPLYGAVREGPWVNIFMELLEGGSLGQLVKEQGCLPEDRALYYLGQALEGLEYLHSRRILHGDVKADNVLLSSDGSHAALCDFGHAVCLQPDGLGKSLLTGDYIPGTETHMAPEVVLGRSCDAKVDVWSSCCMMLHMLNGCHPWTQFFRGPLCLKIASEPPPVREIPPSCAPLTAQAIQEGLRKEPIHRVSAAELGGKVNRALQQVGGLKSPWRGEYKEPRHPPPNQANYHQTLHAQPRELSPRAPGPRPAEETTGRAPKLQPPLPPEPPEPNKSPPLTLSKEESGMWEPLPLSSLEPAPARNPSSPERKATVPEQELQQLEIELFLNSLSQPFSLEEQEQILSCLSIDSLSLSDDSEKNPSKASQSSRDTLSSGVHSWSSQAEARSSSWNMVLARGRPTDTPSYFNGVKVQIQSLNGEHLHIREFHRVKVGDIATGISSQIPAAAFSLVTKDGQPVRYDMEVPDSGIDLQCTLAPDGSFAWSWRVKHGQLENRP

[19] = biological target: Serine/threonine-protein kinase 3 (Homo sapiens, UniProt Q13188); experiment: Binding affinity to recombinant full-length N-terminal His-FLAG-GST-tagged STK3 (unknown origin) expressed in baculovirus infected Sf9 insect cells incubated for 1 hr by TR-FRET assay
[20] = biological target: Serine/threonine-protein kinase TBK1 (Homo sapiens, UniProt Q9UHD2); experiment: Binding affinity to recombinant human full length N-terminal GST-tagged TBK1 expressed in baculovirus expression system using CKtide as substrate incubated for 1 hr by TR-FRET assay
[21] = biological target: Death-associated protein kinase 3 (Homo sapiens, UniProt O43293); experiment: Binding affinity to recombinant full-length N-terminal His-FLAG-GST-tagged DAPK3 (unknown origin) expressed in baculovirus infected Sf9 insect cells incubated for 1 hr by TR-FRET assay
[22] = biological target: Mitogen-activated protein kinase kinase kinase 2 (Homo sapiens, UniProt Q9Y2U5); experiment: Binding affinity to recombinant full-length N-terminal His-FLAG-GST-tagged MAP3K2 (unknown origin) (337 to 620 residues) expressed in baculovirus infected Sf9 insect cells incubated for 1 hr by TR-FRET assay
[23] = biological target: Serine/threonine-protein kinase pim-2 (Homo sapiens, UniProt Q9P1W9); experiment: Binding affinity to recombinant human full-length N-terminal GST-tagged PIM2 expressed in baculovirus expression system using S6K2 peptide as substrate incubated for 1 hr by TR-FRET assay
[24] = biological target: MAP/microtubule affinity-regulating kinase 4 (Homo sapiens, UniProt Q96L34); experiment: Binding affinity to recombinant full-length N-terminal His-FLAG-tagged MARK4 (unknown origin) expressed in baculovirus infected Sf9 insect cells incubated for 1 hr by TR-FRET assay

With `CO[C@@H]1[C@H](N(C)CCOCCOCCOCCNC(=O)CCC2=[N+]3C(=Cc4c(C)cc(C)n4[B-]3(F)F)C=C2)C[C@H]2O[C@]1(C)n1c3ccccc3c3c4c(c5c6ccccc6n2c5c31)C(=O)NC4` the Kd [1] was 6 nM, the Kd [2] was 14 nM and the Kd [3] was 148 nM. For the same compound, the Kd [4] was 4 nM, the Kd [5] was 140 nM and the Kd [6] was 1200 nM. For the same compound, the Kd [7] was 361 nM, the Kd [8] was 6 nM and the Kd [9] was 19 nM. It also gave a Kd (CDK8/Cyclin C) of 148 nM, a Kd [10] of 193 nM and a Kd [11] of 60 nM. It also gave a Kd [12] of 245 nM, a Kd [13] of 19 nM and a Kd [14] of 37 nM. The Kd [15] was 326 nM, the Kd [16] was 1770 nM and the Kd [17] was 6 nM. The Kd [18] was 445 nM, the Kd [19] was 3 nM and the Kd [20] was 9 nM. For the same compound, the Kd [21] was 25 nM and the Kd [22] was 53 nM.

For `CO[C@@H]1[C@H](NCCOCCOCCOCCNC(=O)CCC2=[N+]3C(=Cc4c(C)cc(C)n4[B-]3(F)F)C=C2)C[C@H]2O[C@]1(C)n1c3ccccc3c3c4c(c5c6ccccc6n2c5c31)C(=O)NC4`, the Kd [23] was 15 nM, the Kd [1] was 13 nM and the Kd [2] was 21 nM. It also gave a Kd [3] of 230 nM, a Kd [4] of 7 nM and a Kd [5] of 79 nM. The Kd [6] was 844 nM, the Kd [7] was 242 nM and the Kd [8] was 11 nM. For the same compound, the Kd [9] was 24 nM, the Kd (CDK8/Cyclin C) was 299 nM and the Kd [10] was 193 nM. The Kd [11] was 44 nM, the Kd [24] was 6 nM and the Kd [12] was 315 nM. The Kd [13] was 18 nM, the Kd [14] was 28 nM and the Kd [15] was 448 nM. The Kd [16] was 1220 nM, the Kd [17] was 4 nM and the Kd [18] was 352 nM. The Kd [19] was 6 nM, the Kd [20] was 17 nM and the Kd [21] was 41 nM. It also gave a Kd [22] of 38 nM.
